Data as given in patent US20250215039A1, “NUCLEOSIDES FOR TREATING CANCER” (PRIMEFOUR THERAPEUTICS, INC., priority 2022, published 2025).
Where two headings read alike, the source gives them in different places.

System: cancer cell lines
Experiment: Cancer cell proliferation activity (CellTiterGlo, 72 h)
Format: cell-based
Conditions: 72 h, 72 h, read-out: IC50
Procedure, shortened: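 Readout is CellTiterGlo luminescence after 72 h compound exposure (0.1% DMSO final), started one day post-seeding, at 37 °C.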

IC50 (5637 cell line (bladder)): 4.09 µM
IC50 (CLS439 cell line (bladder)): > 50 µM
IC50 (HS729 cell line (muscle)): 8.57 µM
IC50 (HSS78T cell line): 3.71 µM
IC50 (JAR cell line (placenta)): 3.66 µM
IC50 (SKMELS cell line): 4.92 µM
IC50 (Homo sapiens, 22Rv1, 72 h, 22RV1 cell line (prostate)): > 50 µM
IC50 (Homo sapiens, 786-0, 72 h, 786O cell line (kidney)): 2.59 µM
IC50 (Homo sapiens, A204, 72 h, A204 cell line (muscle)): 4.91 µM
IC50 (Homo sapiens, A549, 72 h, A549 cell line): 4.96 µM
IC50 (Homo sapiens, A673, 72 h, A673 cell line (bone)): > 50 µM
IC50 (Homo sapiens, A2780, 72 h, A2780 cell line (ovary)): 4.54 µM
IC50 (Homo sapiens, A-375, 72 h, A375 cell line (skin)): 3.67 µM
IC50 (Homo sapiens, A-431, 72 h, A431 cell line (skin)): 2.29 µM
IC50 (Homo sapiens, ACHN, ACHN cell line (kidney)): > 50 µM
IC50 (Homo sapiens, ASPC1, 72 h, ASPC1 cell line (pancreas)): 2.99 µM
IC50 (Homo sapiens, BT-20, 72 h, BT20 cell line (breast)): 4.14 µM
IC50 (Homo sapiens, BXPC-3, 72 h, BXPC3 cell line (pancreas)): 7.13 µM
IC50 (Homo sapiens, C-33-A, C33A cell line (cervical)): 4.28 µM
IC50 (Homo sapiens, CAKI-1, 72 h, CAKI1 cell line (kidney)): 0.41 µM
IC50 (Homo sapiens, COLO 205, 72 h, COLO205 cell line (colon)): 5.86 µM
IC50 (Homo sapiens, COLO-678, 72 h, COLO678 cell line (colon)): 9.54 µM
IC50 (Homo sapiens, Ca-Ski, CASKI cell line (cervical)): 2.33 µM
IC50 (Homo sapiens, Caco-2, 72 h, CACO2 cell line (colon)): 5.32 µM
IC50 (Homo sapiens, Calu-6, 72 h, CALU6 cell line (lung)): 3.07 µM
IC50 (Homo sapiens, DLD-1, 72 h, DLD1 cell line (colon)): > 50 µM
IC50 (Homo sapiens, DU-145, 72 h, DU145 cell line (prostate)): 3.3 µM
IC50 (Homo sapiens, EFO-21, 72 h, EFO21 cell line (ovary)): 3.75 µM
IC50 (Homo sapiens, EJ-28, 72 h, EJ28 cell line (bladder)): 5.11 µM
IC50 (Homo sapiens, Granta-519, 72 h, GRANTA-519 cell line (hematological)): > 50 µM
IC50 (Homo sapiens, HCT-15, 72 h, HCT15 cell line (colon)): > 50 µM
IC50 (Homo sapiens, HCT-116, 72 h, HCT116 cell line (colon)): 3.96 µM
IC50 (Homo sapiens, HEK293, 72 h, HEK293 cell line (kidney)): 5.3 µM
IC50 (Homo sapiens, HL-60, 72 h, HL-60 cell line (hematological)): 5.42 µM
IC50 (Homo sapiens, HT-29, 72 h, HT29 cell line (colon)): 2.16 µM
IC50 (Homo sapiens, HT-1080, 72 h, HT1080 cell line (connective tissue)): > 50 µM
IC50 (Homo sapiens, HeLa, HELA cell line (cervical)): 2.73 µM
IC50 (Homo sapiens, HepG2, 72 h, HEPG2 cell line (liver)): 3.32 µM
IC50 (Homo sapiens, IGROV-1, 72 h, IGROV1 cell line (ovary)): 2.72 µM
IC50 (Homo sapiens, IMR-90, 72 h, IMR.90 cell line): 2.76 µM
IC50 (Homo sapiens, J82, 72 h, J82 cell line (bladder)): 3.18 µM
IC50 (Homo sapiens, JEG-3, 72 h, JEG3 cell line (placenta)): 3.36 µM
IC50 (Homo sapiens, JIMT-1, 72 h, JIMT1 cell line (breast)): 1.43 µM
IC50 (Homo sapiens, K562, 72 h, K-562 cell line (hematological)): > 50 µM
IC50 (Homo sapiens, Kasumi 1, 72 h, KASUMI-1 cell line (hematological)): 1.54 µM
IC50 (Homo sapiens, L-363, 72 h, L-363 cell line (hematological)): 3.16 µM
IC50 (Homo sapiens, LoVo, LOVO cell line (colon)): 3.61 µM
IC50 (Homo sapiens, MCF7, 72 h, MCF7 cell line (breast)): > 50 µM
IC50 (Homo sapiens, MDA-MB-231, 72 h, MDAMB231 cell line (breast)): > 50 µM
IC50 (Homo sapiens, MDA-MB-435, 72 h, MDAMB435 cell line (skin)): > 50 µM
IC50 (Homo sapiens, MDA-MB-436, 72 h, MDAMB436 cell line (breast)): 3.36 µM
IC50 (Homo sapiens, MDA-MB-468, 72 h, MDAMB468 cell line (breast)): 2.58 µM
IC50 (Homo sapiens, MG-63, 72 h, MG63 cell line (bone)): > 50 µM
IC50 (Homo sapiens, MHH-ES-1, 72 h, MHHES1 cell line (bone)): 3.07 µM
IC50 (Homo sapiens, MIA PaCa-2, 72 h, MIAPACA2 cell line (pancreas)): > 50 µM
IC50 (Homo sapiens, MINO, MINO cell line (hematological)): 2.52 µM
IC50 (Homo sapiens, MV4-11, 72 h, MV4-11 cell line (hematological)): 3.35 µM
IC50 (Homo sapiens, NCI-H23, 72 h, NCI-H23 cell line (lung)): 3.33 µM
IC50 (Homo sapiens, NCI-H82, 72 h, NCIH82 cell line (lung)): 3.4 µM
IC50 (Homo sapiens, NCI-H292, 72 h, NCIH292 cell line (lung)): > 50 µM
IC50 (Homo sapiens, NCI-H460, 72 h, NCIH460 cell line (lung)): 5.43 µM
IC50 (Homo sapiens, OVCAR-3, 72 h, OVCAR3 cell line (ovary)): 1.92 µM
IC50 (Homo sapiens, OVCAR-4, 72 h, OVCAR4 cell line (ovary)): 4.25 µM
IC50 (Homo sapiens, PANC-1, 72 h, PANC1 cell line (pancreas)): > 50 µM
IC50 (Homo sapiens, PC-3, 72 h, PC3 cell line (prostate)): 3.83 µM
IC50 (Homo sapiens, PLC-PRF-5, 72 h, PLCPRF5 cell line (liver)): > 50 µM
IC50 (Homo sapiens, Panc1005, 72 h, PANC1005 cell line (pancreas)): 2.98 µM
IC50 (Homo sapiens, RD, RD cell line (muscle)): 4.61 µM
IC50 (Homo sapiens, Ramos, RAMOS cell line (hematological)): 3.68 µM
IC50 (Homo sapiens, SAOS-2, 72 h, SAOS2 cell line (bone)): 4.32 µM
IC50 (Homo sapiens, SF-268, 72 h, SF268 cell line (brain)): > 50 µM
IC50 (Homo sapiens, SF-295, 72 h, SF295 cell line (brain)): > 50 µM
IC50 (Homo sapiens, SK-BR-3, 72 h, SKBR3 cell line (breast)): 1.09 µM
IC50 (Homo sapiens, SK-HEP1, 72 h, SKHEP1 cell line (liver)): 5.13 µM
IC50 (Homo sapiens, SK-LMS-1, 72 h, SKLMS1 cell line (uterus)): 4.34 µM
IC50 (Homo sapiens, SK-MEL-28, 72 h, SKMEL28 cell line (skin)): 3.69 µM
IC50 (Homo sapiens, SK-N-AS, SKNAS cell line (brain)): 2.78 µM
IC50 (Homo sapiens, SK-N-SH, SKNSH cell line (brain)): 2.65 µM
IC50 (Homo sapiens, SK-OV-3, 72 h, SKOV3 cell line (ovary)): 3.01 µM
IC50 (Homo sapiens, SNB-75, 72 h, SNB75 cell line (brain)): 9.06 µM
IC50 (Homo sapiens, SU-DHL10, 72 h, SU-DHL-10 cell line (hematological)): 4.84 µM
IC50 (Homo sapiens, SU-DHL-6, 72 h, SU-DHL-6 cell line (hematological)): 3.29 µM
IC50 (Homo sapiens, SW-620, 72 h, SW620 cell line (colon)): 3.44 µM
IC50 (Homo sapiens, T-24, 72 h, T24 cell line (bladder)): 3.9 µM
IC50 (Homo sapiens, TE-671, 72 h, TE671 cell line (muscle)): > 50 µM
IC50 (Homo sapiens, THP-1, 72 h, THP-1 cell line (hematological)): > 50 µM
IC50 (Homo sapiens, U2OS, U2OS cell line (bone)): 2.64 µM
IC50 (Homo sapiens, U-87 MG, U87MG cell line (brain)): > 50 µM
IC50 (Homo sapiens, UMUC3, 72 h, UMUC3 cell line (bladder)): > 50 µM
IC50 (Homo sapiens, UO-31, 72 h, UO31 cell line (kidney)): 2.15 µM
IC50 (Homo sapiens, WSU-NHL, WSU-NHL cell line (hematological)): 3.41 µM
IC50 (MT-3, 72 h, MT3 cell line (breast)): 2.87 µM
IC50 (NCI-H358M, NCIH358M cell line (lung)): 2.68 µM
IC50 (PBMC, PBMC (hematological)): > 50 µM
IC50 (RD-ES, RDES cell line (bone)): 3.07 µM
SMILES: CC(C)C[C@]1(CO)O[C@@H](n2cnc3c(N)nc(F)nc32)C[C@@H]1O [Cpd. No. 133, (2R,3S,5R)-5-(6-amino-2-fluoro-9H-purin-9-yl)-2-(hydroxymethyl)-2-isobutyltetrahydrofuran-3-ol]
